Results reported in patent publication US20080076760A1, “2,3,4,5-TETRAHYDRO-1H-1,5-BENZODIAZEPINE DERIVATIVE AND MEDICINAL COMPOSITION” (priority 2004, published 2008).

Legend:
[1] = biological target: human vasopressin V1a receptor (Homo sapiens, UniProt P37288); experiment: Receptor binding study, [3H]AVP displacement on CHO cell membranes, human V1a; conditions: [3H]AVP displacement, CHO cell membrane, 25° C., one hour; read-out: Human V1a Ki
Description: (§1) (ii) Receptor Binding Study
(§2) Assay was performed using 50 mM of Tris-HCl (pH=7.4) (total amount: 250 μL) (buffer composition: containing […] of MgCl2 and 0.1% BSA), and incubation was performed at room temperature (25° C.) for one hour. After incubation, suck filtration was immediately performed and reaction was completed when the membrane sample was collected on a glass fiber filter fitted with the microplate. After the filter was washed with an ice-cold Tris-HCl buffer (50 mM Tris-HCl, 10 mM MgCl2, pH 7.4), radioactivity measurement was performed. Nonspecific binding was determined using nonradioactive-labeled AVP (1 μM).

[2] = biological target: human vasopressin V2 receptor (Homo sapiens, UniProt P30518); experiment: Receptor binding study, [3H]AVP displacement on CHO cell membranes, human V2; conditions: [3H]AVP displacement, CHO cell membrane, 25° C., one hour; read-out: Human V2 Ki
Description: Preparation of Chinese hamster ovary (Cho) cell which expresses human vasopressin receptor subtype and production of membrane sample of the cell was conducted according to the method of Tahara et al. (Br. J. Pharmacol., 125, 1463-1470, 1998).
as §1
as §2, with “In saturation binding experiment, the membrane sample and [^3H]AVP of several concentrations (0.125 nM to 4.0 nM) were mixed and incubated in microplate wells. In displacement experiment, [^3H]AVP of constant concentrations (0.5 nM to 1.0 nM) and the membrane sample were mixed with Compound A of several concentrations, and incubation was performed. Assay” for “Assay”

human vasopressin V2 receptor, sequence (P30518 whole entry): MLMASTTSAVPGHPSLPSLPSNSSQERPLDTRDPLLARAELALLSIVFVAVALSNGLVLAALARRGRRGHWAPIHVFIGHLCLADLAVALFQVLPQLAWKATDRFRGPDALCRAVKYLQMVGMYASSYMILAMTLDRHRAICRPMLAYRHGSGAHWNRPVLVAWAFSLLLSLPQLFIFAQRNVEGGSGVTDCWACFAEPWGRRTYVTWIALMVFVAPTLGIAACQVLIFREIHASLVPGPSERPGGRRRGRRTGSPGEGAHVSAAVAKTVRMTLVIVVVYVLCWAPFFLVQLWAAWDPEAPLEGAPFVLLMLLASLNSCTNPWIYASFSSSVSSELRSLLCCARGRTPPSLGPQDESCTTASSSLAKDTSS
human vasopressin V1a receptor, sequence (P37288 whole entry): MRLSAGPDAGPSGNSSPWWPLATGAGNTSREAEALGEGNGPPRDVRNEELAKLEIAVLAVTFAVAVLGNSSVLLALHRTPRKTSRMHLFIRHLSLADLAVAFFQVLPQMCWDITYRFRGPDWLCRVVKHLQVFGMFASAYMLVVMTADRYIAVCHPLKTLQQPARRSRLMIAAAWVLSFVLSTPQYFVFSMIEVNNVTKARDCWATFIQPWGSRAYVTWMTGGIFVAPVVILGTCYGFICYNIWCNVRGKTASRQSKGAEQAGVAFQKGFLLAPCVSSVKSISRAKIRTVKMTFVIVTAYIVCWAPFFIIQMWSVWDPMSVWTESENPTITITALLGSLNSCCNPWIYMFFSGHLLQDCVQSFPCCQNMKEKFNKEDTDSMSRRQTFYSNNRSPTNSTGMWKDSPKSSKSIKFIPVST

Row | SMILES | Ki [1] | Ki [2]
1 | CC(=O)Nc1cc(C(=O)N2CCC(C)Nc3ccccc32)ccc1-c1ccc2[nH]ccc2c1 (stereo not shown) [Example 3, N-[2-(1H-indol-5-yl)-5-[(4-methyl-2,3,4,5-tetrahydro-1H-1,5-benzodiazepin-1-yl)carbonyl]phenyl]acetamide] | 0.18 nM | 22 nM
2 | C[C@H]1CCN(C(=O)c2ccc(-c3ccc4[nH]ccc4c3)c(CN3CCOCC3)c2)c2ccccc2N1 [Example 94, (4S)-1-[4-(1H-indol-5-yl)-3-(4-morpholinylmethyl)benzoyl]-4-methyl-2,3,4,5-tetrahydro-1H-1,5-benzodiazepine] | 0.21 nM | 0.73 nM
3 | C[C@H]1CCN(C(=O)c2ccc(-c3ccc4[nH]ccc4c3)c(OCCCN3CCN(C)CC3)c2)c2ccccc2N1 [Example 70, (4S)-1-[4-(1H-indol-5-yl)-3-[3-(4-methyl-1-piperazinyl)propoxy]benzoyl]-4-methyl-2,3,4,5-tetrahydro-1H-1,5-benzodiazepine] | 0.19 nM | 6.9 nM
4 | CC1CCN(C(=O)c2ccc(-c3ccc4[nH]ccc4c3)c(OCCCNC(=O)CN)c2)c2ccccc2N1 (stereo not shown) [Example 169, 2-amino-N-[3-[2-(1H-indol-5-yl)-5-[(4-methyl-2,3,4,5-tetrahydro-1H-1,5-benzodiazepin-1-yl]carbonyl]phenoxy]propyl]acetamide] | 0.13 nM | 4.9 nM
5 | C[C@H]1CCN(C(=O)c2ccc(-c3ccc4[nH]ccc4c3)c(OCCCN3C(=O)CNC3=O)c2)c2ccccc2N1 [Example 97, 3-[3-[2-(1H-indol-5-yl)-5-[[(4S)-4-methyl-2,3,4,5-tetrahydro-1H-1,5-benzodiazepin-1-yl]carbonyl]phenoxy]propyl]-2,4-imidazolidinedion] | 0.13 nM | 0.39 nM
6 | CCOC(=O)CC(=O)NCCCOc1cc(C(=O)N2CC[C@H](C)Nc3ccccc32)ccc1-c1ccc2[nH]ccc2c1 [Example 170, ethyl 3-[[3-[2-(1H-indol-5-yl)-5-[[(4S)-4-methyl-2,3,4,5-tetrahydro-1H-1,5-benzodiazepin-1-yl]carbonyl]phenoxy]propyl]amino]-3-oxopropanoate] | 0.37 nM | 2.6 nM
7 | CCCNCCCOc1cc(C(=O)N2CC[C@H](C)Nc3ccccc32)ccc1-c1ccc(NCC)cc1 [Example 165, N-ethyl-4′-[[(4S)-4-methyl-2,3,4,5-tetrahydro-1H-1,5-benzodiazepin-1-yl]carbonyl]-2′-[3-(propylamino)propoxy][1,1′-biphenyl]-4-amine] | 0.28 nM | 92 nM
8 | C[C@H]1CCN(C(=O)c2ccc(-c3ccc4[nH]ccc4c3)c(OCCCN3CCC(C(N)=O)CC3)c2)c2ccccc2N1 [Example 83, 1-[3-[2-(1H-indol-5-yl)-5-[[(4S)-4-methyl-2,3,4,5-tetrahydro-1H-1,5-benzodiazepin-1-yl]carbonyl]phenoxy]propyl]-4-piperidine carboxamide] | 0.13 nM | 17 nM
9 | CCCCN1CCN(CCOc2cc(C(=O)N3CC[C@H](C)Nc4ccccc43)ccc2-c2ccc3[nH]ccc3c2)CC1 [Example 148, (4S)-1-[3-[2-(4-butyl-1-piperazinyl)ethoxy]-4-(1H-indol-5-yl)benzoyl]-4-methyl-2,3,4,5-tetrahydro-1H-1,5-benzodiazepine] | 0.23 nM | 9.6 nM
10 | CCN1CCC(OC(=O)c2cc(C(=O)N3CC[C@H](C)Nc4ccccc43)ccc2-c2ccc3[nH]ccc3c2)C1 (stereo partly drawn) [Example 145, 1-ethyl-3-pyrrolidinyl 2-(1H-indol-5-yl)-5-[[(4S)-4-methyl-2,3,4,5-tetrahydro-1H-1,5-benzodiazepin-1-yl]carbonyl]benzoate] | 0.12 nM | 20 nM
11 | C[C@H]1CCN(C(=O)c2ccc(-c3ccc4[nH]ccc4c3)c(OCCN3CCN(C)CC3)c2)c2ccccc2N1 [Example 110, (4S)-1-[4-(1H-indol-5-yl)-3-[2-(4-methyl-1-piperazinyl)ethoxy]benzoyl]-4-methyl-2,3,4,5-tetrahydro-1H-1,5-benzodiazepine] | 0.13 nM | 6.5 nM
